In experiment [1] the test system is HCT-116 cells. Nature of the experiment: Cell cycle analysis by flow cytometry. The format is cell-based, human. As to conditions: IC50 concentration, 24 h. From the text: The exposure of the cells to 4112 led to a significant increase in the proportion of cells in pre-G1 phase (Up to 9-fold compared to the control). Accumulation of cells in pre-G1 phase, likely as a result of degradation or fragmentation of genetic material indicates a possible role for apoptosis through compound-induced growth inhibition.
The cells were collected by trypsinization, washed with phosphate buffered saline (PBS) and fixed in ice-cold absolute alcohol. Thereafter, cells were stained using Cycletest™ Plus DNA Reagent Kit (BD Biosciences, San Jose, Calif.) according to the manufacturer's instructions. Cell cycle distribution was determined using a FACS Calibur flow cytometer (BD Biosciences, San Jose, Calif.).
Background: In flow cytometry, cells or beads pass a laser one at a time.

For experiment [2], the system named is HT-29 colon cancer cell spheroids (cancer stem cells). Description: Primary (1°) colonosphere formation assay. In kind it is cell-based, human. As for the experimental part:
Compound 4112 and another potent compound 3712 were also evaluated for their ability to inhibit cancer stem cell proliferation using a primary (1°) colonosphere formation assay. In this assay, HT-29 colon cancer cells were grown in low adhesion plates to form spheres as previously described. See Patel, N. J.; Karuturi, R.; Al-Horani, R. A.; Baranwal, S.; Patel, J.; Desai, U. R.; Patel, B. B., Synthetic, non-saccharide, glycosaminoglycan mimetics selectively target colon cancer stem cells. ACS Chem Biol 2014, 9 (8), 1826-33, incorporated herein by reference in its entirety. Wells treated with the inventive compounds were compared to vehicle treated cells for primary sphere growth inhibition after 5 days of incubation. […] Of note, monolayer growth conditions are ideally suited for examining cellular proliferation, whereas spheroid growth conditions examine cancer stem cell growth and self-renewal properties.
For primary sphere formation, cells were plated in nontreated, low adhesion, 96 wells plate at the concentration of 100 cells/100 μL/well in stem cell media (SCM) that consisted of DMEM:F12:AA (Gibco), supplemented with 1×B27 (Gibco), 20 ng/mL epidermal growth factor, and 10 ng/mL fibroblast growth factor (Sigma). After 4 h of incubation, vehicle (control) or 3712 and 4112 at the desired concentrations were added to each well (at least in triplicates for each sample). On day five, numbers of spheres ranging from […] in diameter were counted using phase contrast microscope and percent inhibition was calculated compared to control.

The subject of a further experiment is CACO-2 cells. Nature of the experiment: SRB cytotoxicity assay, CACO-2. The format is cell-based, human. As to conditions: 72 h exposure, ± SEM. A digest of the protocol:
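Cells seeded at 5000/well, grown 24 h, then exposed 72 h at 37 °C to 0.01–100 μM compound or 1% DMSO in RPMI1640 with 10% FBS. TCA-fixed, SRB-stained, OD read at 510 nm; viability expressed relative to untreated control cells.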
For orientation: Sulforhodamine B stains cellular protein and so reports cell mass.

Experiment [3] relates to HCT-116 cells. Nature of the experiment: ROS accumulation by DCFDA staining. In kind it is cell-based, human. As to conditions: 24 and 48 h, compared to untreated cells. The method, then:
The elevation of oxidative stress inside cancer cells, consequent to treatment with 4112, was investigated via monitoring ROS release over time (24 and 48 h). In this test, the 2′,7′-dichlorofluorescin diacetate (DCFDA) dye was used to detect various ROS species and emit green fluorescence.
To determine the effect of the newly synthesized compounds on the cellular redox status, two different free radical sensitive probe dichlorofluorescin diacetate (DCFDA) was used. Cells were cultured on sterile 22 mm^2 cover slips (Harvard Apparatus, MA, USA) in sterile six well plates at a density of 2×10^5 cells/well. […] At the end of the exposure, cells attached to cover slips were washed thrice with PBS and incubated with DCFDA 10 μM for 30 min at 37° C. in the dark. Thereafter, cells were washed thrice with PBS and the cover slips were then mounted on a glass slide with anti-fade mounting medium containing 4′,6′-diamidino-2-phenylindole, dihydrochloride (DAPI) (Sigma-Aldrich, St. Louis, Mo., USA), which was used as counter stain and viewed with an epifluorescence microscope, Leica, DM 5500 B (Leica, Buffalo Grove, Ill., USA) at a magnification of 60×. Data were captured digitally and quantified using the microscope provided software.

Experiment [4] deals with baby hamster kidney (BHK) cell lines. Nature of the experiment: Cytotoxicity against normal baby hamster kidney cells. The conditions noted are these: 72 h. The format is cell-based. As for the experimental part:
FIG. 3B is a graph illustrating the cytotoxic effect of 4112 against human colon adenocarcinoma cancer cells (HCT-116, Caco-2 and HT-29) vs. normal baby hamster kidney cells (BHK). All cells were exposed to different concentrations of 4112 for 72 h. The cell viability concentration curves were plotted, and the IC50 were determined. *denotes significance at P<0.001;
Based on the favorable pharmacologic and physicochemical properties of MOS-1512, it was selected as a new lead for the second subset of compounds (MOS-1812 to MOS-5112). The compounds in this series contained variable groups at R^1 and R^2 that were all tested against the three cancer cell lines (HCT-116, Caco-2 and HT-29). […]
The sulforhodamine B (SRB) assays were performed according to Skehan, P.; Storeng, R.; Scudiero, D.; Monks, A.; McMahon, J.; Vistica, D.; Warren, J. T.; Bokesch, H.; Kenney, S.; Boyd, M. R., New colorimetric cytotoxicity assay for anticancer-drug screening. […] Briefly, exponentially growing cells were trypsinized, counted and seeded at the appropriate densities (5000 cells/100 μL/well) into 96-well microtiter plates. […] The protein-bound dye was dissolved in 10 mM Tris base solution for (optical density) OD determination at 510 nm using a SpectraMax plus Microplate Reader (Molecular Devices, CA). […]

Results on one compound are retold here after patent US11214556B1, “Method of treating colorectal cancer” (King Abdulaziz University, priority 2019, dated 2022).

In general, IC50 refers to the concentration that inhibits the measured activity by half. Low readings indicate greater potency, high ones weaker potency. With `CCCNC(=O)/C(=C/c1c[nH]c2ccccc12)NC(=O)/C=C/c1cccs1` [Compound 4112, (Z)-3-(1H-indol-3-yl)-N-propyl-2-[(E)-3-(thien-2-yl)acrylamidolacry]amide], in the experiment with HCT-116 cells [1], the “increase in proportion of cells in pre-G1 phase compared to the control” value is on record as “Up to 9 fold”. The IC50 in experiment [2] (HT-29 spheres, 5 days of incubation) came to 18.9 ± 1.1 µM; in the experiment on CACO-2 cells it was 0.89 ± 0.04 µM; in experiment [4], 77.6 ± 6.2 µM. Further, the “inhibition of colon cancer spheroids formation” value in experiment [2] (spheroids >50 μm, 5 days) is reported as “dose-dependent inhibition”. The “accumulation of ROS” value in the experiment on HCT-116 cells [3] is “causes accumulation of ROS”.
